Measured values reported in patent US20050069541A1, “Composition for and treatment of demyelinating diseases and paralysis by administration of remyelinating agents” (priority 2003, published 2005).

Experiments:
[1] = Receptor-saturating levels of compound maintained in dosed EAE guinea pigs; format: in vivo; conditions: 30 mg/kg twice a day, subcutaneously, guinea pig
Method: Treatment Regimes. N-[N-(3-pyridinesulfonyl)-L-3,3-dimethyl-4-thiaprolyl]-O-[1-methylpiperazin-4-ylcarbonyl]-L-tyrosine isopropyl ester is a small molecule that binds with high affinity to human and guinea pig 4 integrin (IC50 for inhibition of cell adhesion to VCAM=1 nm). Disease in animals was considered chronic by day 40 post immunization, and thus the treatment period began at this time, and lasted for 10, 20, 30 or 40 days. Animals received either 0.5 mL saline (vehicle for N-[N-(3-pyridinesulfonyl)-L-3,3-dimethyl-4-thiaprolyl]-O-[1-methylpiperazin-4-ylcarbonyl]-L-tyrosine isopropyl ester; n=20) or 30 mg/kg N-[N-(3-pyridinesulfonyl)-L-3,3-dimethyl-4-thiaprolyl]-O-[1-methylpiperazin-4-ylcarbonyl]-L-tyrosine isopropyl ester (n=25) twice a day. With the dosing regimen, receptor saturation levels of N-[N-(3-pyridinesulfonyl)-L-3,3-dimethyl-4-thiaprolyl]-O-[1-methylpiperazin-4-ylcarbonyl]-L-tyrosine isopropyl ester (>10 nm) were maintained at all times. One subgroup of animals received N-[N-(3-pyridinesulfonyl)-L-3,3-dimethyl-4-thiaprolyl]-O-[1-methylpiperazin-4-ylcarbonyl]-L-tyrosine isopropyl ester for 30 days, and then treatment was withdrawn and the animals were maintained for an additional 10 days (n=5). All treatments were administered subcutaneously.
Treatment Regimes. Animals that met both treatment criteria were treated for intervals of 10, 20, 30 or 40 days. […]

[2] = system: brain and spinal cord of EAE guinea pigs; experiment: Chronic EAE: histology and blinded pathological scoring of brain and spinal cord sections (H-E, SCR); format: in vivo, guinea pig
Method: Animal Sacrifice and Histological Analysis. Untreated, chronic EAE animals (n=5) were sacrificed on day 40, as well as non-EAE controls (n=5). Following each 10-day treatment interval, 5 animals from each group were sacrificed (0.25 mL sodium pentobarbital), blood samples were collected for FACS analysis (see below), and the brain and spinal cord dissected and sectioned. Three spinal sections were used, corresponding to lumbar, thoracic and cervical regions of the cord. The brain was cut into five transverse sections. The first three proximal sections were combined in one block, and the last two distal sections in another. Tissues were fixed in 10% formalin and embedded in paraffin. […] sections were stained with hematoxylin-eosin (H-E) or solochrome-R-cyanlin (SCR) and evaluated by a blinded observer in each of four categories: (1) meningeal inflammation, (2) perivascular infiltration, (3) encephalitis or (4) myelitis and demyelination (Table 6). The combined pathological score represents the total score (out of a potential 20) from all 5 CNS sections in each animal.

[3] = system: guinea pig model of CP-EAE; experiment: Remyelination and motor function in guinea pig CP-EAE; format: in vivo
Excerpt: The number of lesions showing myelin pallor was divided by the total number of lesions within cross sections of spinal cord taken throughout its length from each animal (FIG. 10) (for the method see Warrington et al., 2000, Proc. Nat'l Acad. Sci. USA 97: 6820-5). […] In contrast, after 20 days of N-[N-(3-pyridinesulfonyl)-L-3,3-dimethyl-4-thiaprolyl]-O-[1-methylpiperazin-4-ylcarbonyl]-L-tyrosine isopropyl ester administration, the frequency of shadow plaques in the spinal cord was increased over saline-treated animals, reaching 68%; after 30 and 40 days, the incidence was 77% and 87%, respectively (p<0.001, 2-way ANOVA with Tukey test).
The overall degree of plaque remyelination in the spinal cord was also measured. […] Total lesion area was determined for each animal by tracing all lesions within all spinal cord sections and summing the areas. Likewise, the total area of remyelination was measured by tracing regions of myelin pallor. FIGS. 10C-F plot the total lesion area against the percentage of remyelination. In saline-treated animals, lesions rarely show any evidence of repair, with means ranging between 2 and 11%, and there were no significant differences over the 40-day treatment period (FIGS. 10C-F). In contrast, after 20, 30 or 40 days of N-[N-(3-pyridinesulfonyl)-L-3,3-dimethyl-4-thiaprolyl]-O-[1-methylpiperazin-4-ylcarbonyl]-L-tyrosine isopropyl ester treatment, the majority of lesions identified show a variable degree of remyelination ranged from 2 to 100% in the majority of lesions (mean area of remyelination approximately 50%) (FIGS. 10D-5). (p<0.001, 2-way ANOVA with Tukey test). Therefore while lesions were evident in all animals throughout the 40-day treatment period, N-[N-(3-pyridinesulfonyl)-L-3,3-dimethyl-4-thiaprolyl]-O-[1-methylpiperazin-4-ylcarbonyl]-L-tyrosine isopropyl ester increased the incidence and percentage of remyelination. Furthermore, evidence of remyelination in N-[N-(3-pyridinesulfonyl)-L-3,3-dimethyl-4-thiaprolyl]-O-[1-methylpiperazin-4-ylcarbonyl]-L-tyrosine isopropyl ester-treated animals is consistent with an observed regain of motor function. The starting point for treatment was a clinical score of 2, which denotes full bilateral hind limb paralysis. […] Functional recovery was never observed in control animals.

[4] = system: EAE in female Hartley guinea pigs

SMILES: CC(C)OC(=O)[C@H](Cc1ccc(OC(=O)N2CCN(C)CC2)cc1)NC(=O)[C@H]1N(S(=O)(=O)c2cccnc2)CSC1(C)C [N-[N-(3-pyridinesulfonyl)-L-3,3-dimethyl-4-thiaprolyl]-O-[1-methylpiperazin-4-ylcarbonyl]-L-tyrosine isopropyl ester]
- receptor saturation levels maintained at all times [1]: > 10 nm
- mean pathological score in each of four categories versus saline ([2]; meningeal inflammation, perivascular infiltration, encephalitis/myelitis, demyelination, p<0.001 two-way ANOVA): significant decrease
- mean combined pathological score after withdrawal for 10 days versus continued treatment ([2]; p<0.05 Kruskal Wallis): significantly higher
- spinal cord histology after 20 days of treatment (day 60) ([2]; versus saline): much smaller areas of demyelination
- spinal cord histology after 40 days of treatment (day 80) ([2]; versus saline): almost no meningeal and perivascular infiltration
- mean area of remyelination ([3]; after 20, 30 or 40 days of treatment): approximately 50%
- percentage of plaques exhibiting evidence of remyelination (frequency of shadow plaques in the spinal cord) ([3]; after 20 days of administration): 68%
- percentage of plaques exhibiting evidence of remyelination (incidence) ([3]; after 30 days): 77%
- percentage of plaques exhibiting evidence of remyelination (incidence) ([3]; after 40 days): 87%
- treated animals in which paralysis was reversed to a clinical score of 1 ([3]; treatment started at clinical score of 2): 50%
- start of clinical reversal following the initial treatment ([4]; 30 mg/kg 2x/day s.c.): 2 to 3 days
- mean clinical score over the treatment period versus saline ([4]; 30 mg/kg 2x/day s.c. from day 40 for 10-40 days, p<0.001 Mann Whitney): significantly lower
- mean clinical score day 70-80 after withdrawal (30 days treatment, 10 days off) versus continuous treatment ([4]; n=5, p<0.05 Mann Whitney): significantly greater
- clinical score reached during treatment in animals with an established clinical score of 2 ([4]; several animals, paresis reversed): 1
- escape from treatment ([4]; up to 40 days of treatment): None of the animals, however, escaped from treatment
